Reference: publication PMC11455950, “Effects of SZV-2649, a new multiple ion channel inhibitor mexiletine analogue” (Scientific Reports, 2024)

Key:
anesthetized rats = experiment: Coronary artery occlusion/reperfusion-induced ventricular arrhythmias in anesthetized rats; assay type: in vivo, rat; conditions: for Effect on incidence of ventricular arrhythmias: 6 min coronary artery occlusion / 5 min reperfusion, i.v. 2 min before ischemia; for Incidence of ventricular fibrillation (VF): during reperfusion, over 50% in control animals; for Effect on heart rate: i.v. administration, anesthetized rats
Excerpt: The effects of SZV-2649 were further studied in the acute ischemia-induced ventricular arrhythmia model in anasthetized rats. Mexiletine and dofetilide were used as reference compounds for comparison.
The surgical procedure was based on a modified method described in detail in Gömöri et al. (2020)[62]. Pentobarbital-anesthetized male Wistar-Hannover rats were mechanically ventilated and subjected to thoracic surgery to perform a 6-min coronary artery occlusion and 5-min of reperfusion for the development of ischemia-induced ventricular arrhythmias (see Fig. 6A). The right jugular vein was cannulated for the administration of SZV-2649, vehicle, mexiletine or dofetilide, and the right carotid artery was used to measure blood pressure. The three-lead electrocardiogram and body temperature were continuously registered. Ten to twelve rats per group were administered vehicle (dimethyl sulfoxide, 200 µL/kg) or the studied drugs (see above), 2 min before the onset of ischemia as a slow i.v. bolus injection through the right jugular vein. At the end of 5-min reperfusion, hearts were isolated, mounted onto a Langendorff perfusion system, and after re-occluding the coronary artery, were perfused with 5-mL of 70% ethanol via the ascending aorta to delineate the ischemic risk zone. Then the left ventricles were cut along the demarcation lines of denatured area, and the sections were weighed to determine the area of risk to normalize the extent of the ischaemic insult. We evaluated the occurrence of ventricular arrhythmias based on the recommendations of the modified Lambeth Conventions published previously by Curtis et al. (2013)[63].

anesthetized dogs = experiment: Atrial fibrillation induced by carbachol infusion and burst stimulation in anesthetized dogs; assay type: in vivo, dog; set-up: key to AF converted to SR? / AF reinduced?: N, response not observed; Y, response observed; conditions: i.v. 0.3 mg/kg
Protocol: The effect of SZV-2649 was further investigated in carbachol-infused and programmed electrical stimulation-induced (i.e. 800/min atrial burst stimulation) acute atrial fibillation model in anesthetized dogs.
In the atrial fibrillation experiments, at least 5–6 dogs for control and test groups, (respectively) were used. Following 0.5 µg/kg sufentanyl premedication and […] i.v. pentobarbital anaesthesia induction, left thoracotomy was performed on all animals. Dogs were endotracheally intubated and mechanically ventilated (UGO Basile respirator; Biological Research Apparatus, Italy) Physiological parameters (non-invasive blood pressure, SpO2, ECG) were continuously monitored during surgery and experiments (InnoCare-VET Patient Care Monitor; Budapest, Hungary). The ECGs were recorded using precordial leads and were digitized and stored on a computer for off-line analysis using National Instruments data acquisition hardware (National Instruments, Austin, Texas, USA) and SPEL Advanced Haemosys software (version 3.2, MDE Heidelberg GmbH, Germany). Under pentobarbital anaesthesia, two pacemaker electrodes (Biotronik Solia S 60; Biotronik Ltd., Hungary) were positioned epicardially into the left atrial appendage and apex of the left ventricle, respectively, and electrodes were connected to pacemakers (Effecta D; Biotronik Hungary Ltd., Hungary). Pacemakers were programmed in VVI mode using Biotronik IC: 4808 A-Renamic programmer to prevent the potentially bradycardic effect of carbachol leading to hemodynamic instability. Atrial and ventricular thresholds were measured before AF induction in all animals. Ventricular and atrial pacing were set to three times the measured threshold. AF inducibility were tested in both groups using a control set (25 times) of 10-second-long rapid atrial bursts (800 beats/min, at threefold threshold). Following 25 atrial burst stimuli, 2 × 2 µg/kg loading dose of intravenous carbachol was administered followed by an 8 µg/kg/h maintenance dose. Atrial fibrillation was induced using 10-second-long atrial burst stimuli in the presence of carbachol in both groups of dogs. […] In these experiments, we investigated whether AF was converted to SR by the test drug(s). All intravenous infusions were performed using a programmable infusion pump (Terufusion TE-3; Terumo Europe, Leuven, Belgium).

[1] = system: IKACh in dog atrial trabecular muscle preparations; experiment: Action potential duration in carbachol-pretreated dog atrial trabecular muscle; conditions: 1 µM, 10 min
Protocol: The possible effect of SZV-2649 on IKACh was investigated in dog atrial trabecular muscle preparations. Carbachol (1 µM) was added to the tissue bath for 10 min to activate IKACh. […] Application of 10 µM SZV-2649 prolonged APD substantially to a greater degree (100%) than could be expected by its effect on repolarization in the absence of carbachol (10%) as shown in Table 1; Fig. 5D.
Action potentials were recorded in cardiac ventricular trabeculae and papillary muscle preparations obtained from the right ventricles of Beagle dogs (10–15 kg) of either sex using the conventional microelectrode technique. Dogs were sacrificed by iv. sedation with xylazine (1 mg/kg), followed by i.v. administration of 50 mg/kg pentobarbital. After the cornea reflex disapeared the chest was opened, and the heart was rapidly removed. […]
Isolated papillary muscle or atrial trabecula and Purkinje fiber preparations were obtained and prepared from the right ventricle and were individually mounted in a tissue chamber with the volume of 50 ml. […] Transmembrane potentials were recorded using conventional glass microelectrodes, filled with 3 M KCl and having tip resistances of 5–20 MΩ, connected to the input of a high impedance electrometer (Experimetria, type 309, Budapest, Hungary) which was coupled to a dual beam oscilloscope. […]

SMILES | Effect on incidence of ventricular arrhythmias (anesthetized rats) | Incidence of ventricular fibrillation (VF) (anesthetized rats) [%] | Effect on heart rate (anesthetized rats) | also measured
Cc1cccc(C)c1OCC(C)N (centres unmarked) [mexiletine] | showed some antiarrhythmic effects | 18 | significantly decreased | 
CCCNCC(O)COc1ccccc1C(=O)CCc1ccccc1 (centres unmarked) [propafenone, reference compound] |  |  |  | AF reinduced (number of the 25 burst stimuli) (anesthetized dogs; individual dogs, carbachol + burst): 1/25; AF reinduced? (anesthetized dogs; individual dogs, carbachol + burst, 0.3 mg/kg): N (-) and Y; Atrial fibrillation reinduced, share of burst stimuli (anesthetized dogs; whole group): 1.6%; Times atrial fibrillation was reinduced by the 25 burst stimuli delivered in each animal (anesthetized dogs; whole group): 2 times
CN(CCOc1ccc(NS(C)(=O)=O)cc1)CCc1ccc(NS(C)(=O)=O)cc1 [dofetilide] | increased | 75 | significantly decreased | 
C[N+](C)(C)CCOC(N)=O [carbachol, reference compound] |  |  |  | Effect on atrial repolarization [1]: substantially shortened
